Reference: US12721881B2, “Endostatin peptides for the treatment of tumors, fibrosis and acute lung injury” (MUSC Foundation for Research Development, priority 2019, dated 2026)
Where no end group is shown, it is not given here. The star is where a group is joined. Biotin = O=C1N[C@H]2[C@H](CS[C@H]2CCCCC(=O)*)N1

Tests used:
normal lung fibroblasts [1] = assay: Fibronectin in supernatants of TGFbeta-treated normal lung fibroblasts; format: cell-based, human; settings: 10 μg/ml to 80 μg/ml, 72 hours
Description: Normal lung fibroblasts were treated with TGFbeta without or with increasing concentrations for 96-87. Supernatants were assessed for fibronectin levels after 72 hours of treatment. 96-87 had no effect on TGFbeta-induced FN production, even with increasing concentration from 10 μg/ml to 80 μg/ml (FIG. 18).

normal lung fibroblasts [2] = assay: Extracellular matrix proteins in TGFbeta-treated normal lung fibroblasts, immunoblotting; format: cell-based, human; settings: 10 μg/ml peptide
Description: Normal lung fibroblasts were treated with vehicle as control (VC) or TGFbeta (T) in the presence or absence of 10 μg/ml of various peptide fragments. The extracellular matrix proteins, Collagen 1A1 and fibronectin (FN) were assessed using immunoblotting.

[3] = system: systemic sclerosis pulmonary fibrosis lung tissues; assay: MMP-1 induction in systemic sclerosis pulmonary fibrosis lung tissues in organ culture; format: cell-based, human; settings: 10 μg/ml, TGFbeta, 120 hrs
Description: Systemic sclerosis pulmonary fibrosis lung tissues were divided into equal size cores. Lung tissues in organ culture were treated with different peptide fragments derived from endostatin at a final concentration of 10 μg/ml in the presence of TGFbeta for 120 hrs. The induction of matrix metalloprotease (MMP)-1 (also known as collagenase) in media conditioned by the lung tissues was examined as a measure of the ability of the peptide to reduce fibrosis and promote extracellular matrix degradation.

[4] = system: fibroblasts from lung tissues of normal donors; assay: Alpha smooth muscle actin qRT-PCR in TGFbeta-treated fibroblasts from lung tissues of normal donors; format: cell-based, human; settings: 48 hours
Description: Fibroblasts were treated with TGFbeta with or without peptide Bio96-17 for 48 hours. RNA was extracted and levels of alpha smooth muscle actin (SMA) measured by qRT-PCR.

[5] = system: fibroblasts from lungs of patients with SSc; assay: Gene expression in fibroblasts from lungs of patients with systemic sclerosis (SSc); format: cell-based, human; settings: SSc lung fibroblasts
Description: […] RNA was extracted and levels of alpha smooth muscle actin (SMA) measured by qRT-PCR.
SSc fibroblasts were treated with 10 μg/ml BioE4-03 for 72 hours. RNA was extracted and used to measure SMA and Collagen 1A2.

[6] = system: lung tissues of normal donors; assay: Lung tissues of normal donors in organ culture after induction of fibrosis with TGFbeta; format: cell-based, human; settings: normal donor lung tissue; for hydroxyproline levels: fibrosis induced with TGFbeta
[7] = system: mc-38 colon adenocarcinoma tumor cells; assay: mc-38 colon adenocarcinoma tumor growth in mice, oral gavage; format: in vivo; settings: 100 μg/mouse oral gavage twice/week; for mean rate of increase in the tumor volume at day 21: PBS control 151.1 mm^3 per day; for mean tumor volume at day 21 (model-based estimate): PBS control 1492.1 mm^3
Description: (§1) For each of the experiments, descriptive statistics (means and standard deviations) for tumor volumes were calculated over time for each experimental group (i.e. Experiment 1: Control vs. BioE4 (FIG. 1); Experiment 2: PBS, Bio96, and BioE4-03 (FIG. 5)). Since tumor growth tends to be curvilinear, general linear mixed models (GLMMs) were created to estimate treatment-specific growth curves over time and to make comparisons between the peptide treatments and control. Separate GLMMs were constructed for each experiment, and each GLMM included random effects for each mouse, to control for the fact that the repeated volume measurements within a given mouse were correlated with one another. Tumor volume served as the dependent variable in each model, while time (in days), […], treatment x time, and treatment x time^2 were included as independent variables. Using these models, the estimated mean tumor volumes at specific selected time points and the mean rate of change in the tumor volumes at specific selected time points were compared. If a mouse's tumor grew too large, it was sacrificed; however, all tumor volumes measured prior to sacrifice were included in the modeling process. SAS v9.4 (SAS Institute, Cary, NC) was used for all analyses. All hypothesis tests were 2-sided, and p-values <0.05 were considered statistically significant.
sMIC tolerant transgenic (MB481 strain) mice (Liu et al, Perturbation of NK cell peripheral homeostasis accelerates prostate carcinoma metastasis. J. Clin. Invest. 123:4410, 2013) were injected with 1×10^5 mc-38 colon adenocarcinoma tumor cells via subcutaneous injection When tumor size reached approximately 75 mm^3, treatment was started. start treatment at four group. Bio96 100 μg/mouse, BioE4-03 100 μg/mouse, were given via oral gavage in a volume of 100 μl. PBS (100 μl) was given as a vehicle control. Peptides and vehicle were administered twice/week. Tumor volume was measured 3 times per week.
Direct comparisons were made between the PBS control and Bio96 and between PBS and BioE4-03 with respect to the mean tumor volumes at Day 21 and the mean rate of change in the tumor volumes at Day 21 (FIG. 5 through FIG. 7).

tumors = assay: Histologic analysis of tumors (H & E, Masson Trichrome); format: in vivo, mouse; settings: for collagen bundles in the tumors (Masson Trichrome stain): compared to tumors from vehicle treated mice
Description: Histological analysis of tumors treated with vehicle alone, or with BioE4-03 or Bio96 peptides was performed.

[8] = system: HCT116T cells (human colon carcinoma cells); assay: Gene expression in HCT116T cells by real-time PCR; format: cell-based; settings: 10 μg/ml, 48 hours
Description: (§2) The expression of several genes implicated in tumorigenesis, angiogenesis and cancer stem cell renewal was measured in a variety of tumor types and organs.
Tumor cells were treated with 10 μg/ml BioE4-03 for 48 hours. RNA was extracted and analyzed by real-time PCR. N=3-4 independent experiments (except for uPAR where n=2).

[9] = system: A549 cells (human lung adenocarcinoma cells); assay: Gene expression in A549 cells by real-time PCR; format: cell-based; settings: A549, 10 μg/ml, 48 hours
Description: as §2
Tumor cells were treated with 10 μg/ml BioE4-03 for 48 hours. RNA was extracted and analyzed by real-time PCR. N=6-8 independent experiments. Statistical analysis was done using the paired t-test.

skin tissues from donors = assay: Gene expression in donor skin tissues with TGFbeta-induced fibrosis; format: cell-based, human; settings: skin tissue
From the text: BioE4-03 further reduces Col1A1 and fibronectin (FN) gene expression in skin tissues from donors in which fibrosis was induced with TGFbeta (FIG. 25).

[10] = system: lung tissues of patients with IPF; assay: Hydroxyproline in lung tissues of patients with IPF in organ culture; format: cell-based, human; settings: IPF lung tissue, organ culture 72 hours
[11] = system: human lung adenocarcinoma cells (A549); assay: IL-6 mRNA by qPCR in A549 cells; format: cell-based; settings: A549, 48 hours, relative to vehicle controls
Description: (§3) IL-6 mRNA levels were measured via qPCR in human lung adenocarcinoma cells (A549) treated for 48 hours with BioE4-03 peptide. […] For comparison, a parallel experiment was done using non-biotinylated E4-03. […] Additionally, IL-6 protein levels in the supernatant of A549 cells were measured by ELISA after 72 hours of treatment with E4-03 peptide.

[12] = system: lung tissues of patients with SSc; assay: Hydroxyproline in lung tissues of patients with SSc in organ culture; format: cell-based, human; settings: SSc lung tissue, organ culture 72 hours
[13] = system: fibroblasts from lungs of patients with IPF; assay: Gene expression in fibroblasts from lungs of patients with idiopathic pulmonary fibrosis (IPF); format: cell-based, human; settings: IPF lung fibroblasts
[14] = system: TRAMP C-2 mouse prostate tumor cells; settings: C57BL6 mice, 50 μg/dose oral gavage twice per week, day 15, vs water vehicle
Description: as §1

[15] = system: human lung adenocarcinoma cells (A549); assay: IL-6 protein by ELISA in supernatant of A549 cells; format: cell-based; settings: A549, 72 hours, relative to vehicle controls
Description: as §3

ATGQASSLLGGRLLGQ (C-terminal endostatin-derived peptide 96-87)
TGFbeta-induced FN production (supernatants) (normal lung fibroblasts [1]): no effect

ATGQASSLLGGRLLGQSAASCHHA (C-terminal endostatin-derived peptide 96-17)
Col1A1 levels induced by TGFbeta (immunoblotting) (normal lung fibroblasts [2]): effective at reducing | FN levels induced by TGFbeta (immunoblotting) (normal lung fibroblasts [2]): effective at reducing | MMP-1 production in media conditioned by the lung tissues [3]: induced MMP-1 production

Bio96-17: SEQ ID NO:4 being biotinylated at its N-terminus (Biotin-ATGQASSLLGGRLLGQSAASCHHA; not fully specified (C-terminus))
TGFbeta-induced SMA levels (qRT-PCR) [4]: significant reduction | Coll1A2 levels ([5]; Bio96-17 experiment): significant reduction | SMA levels ([5]; Bio96-17 experiment): significant reduction | secreted Col1A1 protein levels ([6]; TGFbeta, cultured 120 hours): significant reduction | hydroxyproline levels [6]: significant reductions

Biotin-NH2-ATGQASSLL-CONH2 (Biotin-ATGQASSLL-NH2; SMILES CC(C)C[C@H](NC(=O)[C@H](CC(C)C)NC(=O)[C@H](CO)NC(=O)[C@H](CO)NC(=O)[C@H](C)NC(=O)[C@H](CCC(N)=O)NC(=O)CNC(=O)[C@@H](NC(=O)[C@H](C)NC(=O)CCCC[C@@H]1SC[C@@H]2NC(=O)N[C@@H]21)[C@@H](C)O)C(N)=O) [Bio96]
mean rate of increase in the tumor volume at day 21 [7]: 90.6 mm^3 per day | mean tumor volume at day 21 (model-based estimate) [7]: 871.4 mm^3 | collagen bundles in the tumors (Masson Trichrome stain) (tumors): thinner collagen bundles | tumor cell arrangement (H & E) (tumors; tumors from treated mice): looser cell arrangement

Biotin-NH2-SYCETWRTEAPSATGQASSLLGGRLLGQSAASCHHA-CONH2 [BioE4-03]
mean rate of increase in the tumor volume at day 21 [7]: 76.0 mm^3 per day | mean tumor volume at day 21 (model-based estimate) [7]: 767.7 mm^3 | Expression of IL-6 [8]: significantly reduced | Expression of PAI-I [8]: significantly reduced | Expression of PDGF-A [8]: significantly reduced | Expression of VEGF-A [8]: significantly reduced | Expression of uPA [8]: significantly reduced | Expression of uPAR ([8]; n=2): significantly reduced | Expression of IL-6 [9]: significantly reduced | Expression of LOX [9]: significantly reduced | Expression of PAI-I [9]: significantly reduced | Expression of PDGF-A [9]: significantly reduced | Expression of VEGF-A [9]: significantly reduced | Expression of uPA [9]: significantly reduced | Expression of uPAR [9]: significantly reduced | Col1A1 gene expression (skin tissues from donors): reduces | fibronectin (FN) gene expression (skin tissues from donors): reduces | hydroxyproline levels [10]: significant reduction | expression of IL-6 mRNA [11]: significantly reduced | Coll1A2 levels ([5]; 10 μg/ml, 72 hours): significant reduction | SMA levels ([5]; 10 μg/ml, 72 hours): significant reduction | hydroxyproline levels [12]: significant reduction | hydroxyproline levels [6]: significant reductions | Coll1A2 levels [13]: trend towards decrease | SMA levels [13]: trend towards decrease | collagen bundles in the tumors (Masson Trichrome stain) (tumors): thinner collagen bundles | tumor cell arrangement (H & E) (tumors; tumors from treated mice): looser cell arrangement | tumor necrosis (H & E) (tumors; tumors from treated mice): notable necrosis

Biotin-NH2-SYCETWRTEAPSATGQASSLLGGRLLGQSAASCHHAYIVLCIENSFMT-CONH2 [BioE4]
mean rate of increase in the tumor volume on day 15, Control vs. peptide group [14]: significantly (p=0.02) greater in the Control group | mean tumor volume at day 15 (model-based estimate), Control vs. peptide group [14]: significantly (p=0.0001) greater in the Control group

SYCETWRTEAPSATGQASSLL (C-terminal endostatin-derived peptide 91-96)
MMP-1 production in media conditioned by the lung tissues [3]: no effect

SYCETWRTEAPSATGQASSLLGGRLLGQ (C-terminal endostatin-derived peptide 91-97) [91-87]
MMP-1 production in media conditioned by the lung tissues [3]: no effect

SYCETWRTEAPSATGQASSLLGGRLLGQSAASCHHA (C-terminal endostatin-derived peptide E4-03)
Col1A1 levels induced by TGFbeta (immunoblotting) (normal lung fibroblasts [2]): effective at reducing | FN levels induced by TGFbeta (immunoblotting) (normal lung fibroblasts [2]): effective at reducing | IL-6 protein levels in the supernatant [15]: significantly reduced | expression of IL-6 mRNA [11]: reduced | MMP-1 production in media conditioned by the lung tissues [3]: induced MMP-1 production
